Test results from paper PMC8611036, “An integrated method for optimized identification of effective natural inhibitors against SARS-CoV-2 3CLpro” (Scientific Reports, 2021).
Non-standard residues stand in square brackets, D forms with d. Residues, ends and D or L forms follow the SMILES beside them. ξ: configuration not given here. *: point of attachment. ξF = NC(Cc1ccccc1)C(=O)O; Cbz = O=C(OCc1ccccc1)*; CF3 = FC(F)(F)*

Experiments:
SARS-CoV 3CLpro [1] = format: biochemical; settings: activity class by pIC50 threshold 6
SARS-CoV-2 3CLpro = SARS-CoV-2 3CLpro (Severe acute respiratory syndrome coronavirus 2, UniProt P0DTD1); settings: SARS-CoV pIC50 multiplied by similarity index (SI), training set compounds
SARS-CoV 3CLpro [2] = settings: SARS-CoV 3CLpro inhibitors (training set), ref: per compound, cited from earlier work; for pIC50: from literature IC50; for IC50: literature values

Row | Structure (SMILES) | Inact.(<6)/Act.(>=6) (SARS-CoV 3CLpro [1]) | SI*pIC50 (SARS-CoV-2 3CLpro) | pIC50 (SARS-CoV 3CLpro [2]) | IC50 (SARS-CoV 3CLpro [2])
1 | COc1cc(C[S+]([O-])c2nc3cccnc3s2)oc(=O)c1 (stereo not drawn) [CMP109] | Inact. (Inact.(<6)) | 5.294 | 5.143 | 7.2 µM
2 | CC(C)c1ccc(N(C(=O)c2ccco2)C(C(=O)NC(C)(C)C)c2cccnc2)cc1 (stereo not drawn) [CMP182] | Inact. (Inact.(<6)) | 4.7028 | 4.551 | 28.1 µM
3 | C=CCSc1ccccc1NC(=O)/C=C/c1ccccc1 [CMP106] | Inact. (Inact.(<6)) | 4.857 | 4.706 | 19.7 µM
4 | CC(C)c1cc2c(cc1O)[C@@]1(C)CCCC(C)(C)[C@@H]1CC2 [CMP132] | Inact. (Inact.(<6)) | 4.457 | 4.305 | 49.6 µM
5 | O=c1cc(-c2ccc(O)c(O)c2)oc2cc(O)cc(O)c12 [CMP153] | Inact. (Inact.(<6)) | 4.851 | 4.699 | 20 µM
6 | CCC(C)c1ccc(N(C(=O)c2ccco2)C(C(=O)NC2CCCC2)c2cccnc2)cc1 (stereo not drawn) [CMP144] | Inact. (Inact.(<6)) | 5.809 | 5.658 | 2.2 µM
7 | O=C1C(=O)N(Cc2ccccc2)c2ccc(S(=O)(=O)N3CCOCC3)cc21 [CMP148] | Inact. (Inact.(<6)) | 5.01 | 4.858 | 13.9 µM
8 | O=C1C(=O)N(C/C=C/c2cc3ccccc3s2)c2ccc(I)cc21 [CMP98] |  | 4.781 |  | 
9 | CCOC(=O)/C=C/[C@H](C[C@@H]1CCNC1=O)NC(=O)[C@H](CC(C)C)NC(=O)[C@@H](NC(=O)[C@H](CO)NC(=O)OC(C)(C)C)C(C)C [CMP179] | Inact. (Inact.(<6)) | 5.152 | 5 | 10 µM
10 | COC(=O)[C@]1(C)CCC[C@]2(C)c3ccc(C(C)C)cc3CC[C@@H]12 [CMP125] | Inact. (Inact.(<6)) | 3.836 | 3.684 | 207 µM
11 | CSc1[nH]nc(NC(=O)c2cccs2)c1S(=O)(=O)c1ccccc1 [CMP177] | Inact. (Inact.(<6)) | 4.976 | 4.824 | 15 µM
12 | CC(C)C[C@H](NC(=O)[C@@H](NC(=O)OCc1ccccc1)C(C)C)C(=O)N[C@@H](C[C@@H]1CCNC1=O)C(=O)c1nccs1 [CMP183] | Inact. (Inact.(<6)) | 5.174 | 5.022 | 9.5 µM
13 | CCOC(=O)C(C#N)=CNc1ccc(S(=O)(=O)c2ccc(NC=C(C#N)C(=O)OCC)cc2)cc1 [CMP122] | Inact. (Inact.(<6)) | 4.948 | 4.796 | 16 µM
14 | O=C(Nc1ccc(Cl)cc1)c1ccc(CN2C(=O)C(=O)c3cc(I)ccc32)s1 [CMP99] |  | 5.052 |  | 
15 | CC1(C)CC(=O)c2c(NCc3ccco3)sc(C#N)c2C1 [CMP142] | Inact. (Inact.(<6)) | 4.948 | 4.796 | 16 µM
16 | CCOC(=O)C(=CNc1ccc(S(=O)(=O)c2ccc(/N=C/C(C(=O)OCC)=C(\O)OCC)cc2)cc1)C(=O)OCC [CMP139] | Inact. (Inact.(<6)) | 4.6468 | 4.495 | 32 µM
17 | C=C[C@@]1(C)CC[C@H]2C(=CC[C@@H]3[C@]2(C)CCC[C@@]3(C)C(=O)O)C1 [CMP133] | Inact. (Inact.(<6)) | 3.699 | 3.547 | 284 µM
18 | O=C1C(=O)N(Cc2ccccc2)c2ccc(S(=O)(=O)N3CCCCC3)cc21 [CMP176] | Inact. (Inact.(<6)) | 5.006 | 4.854 | 14 µM
19 | O=C1Nc2ccc(S(=O)(=O)N3CCCCC3)cc2C1=O [CMP145] | Inact. (Inact.(<6)) | 5.503 | 5.352 | 4.45 µM
20 | Cc1coc2c1C(=O)C(=O)c1c-2ccc2c1CCCC2(C)C [CMP130] | Inact. (Inact.(<6)) | 5.948 | 5.796 | 1.6 µM
21 | O=C1C(=O)N(c2cccc3ccccc23)c2ccc(I)cc21 [CMP117] | Inact. (Inact.(<6)) | 6.11 | 5.959 | 1.1 µM
22 | CC(C)C1=CC2=CC[C@@H]3[C@](C)(CCC[C@@]3(C)C(=O)O)[C@H]2CC1 [CMP124] | Inact. (Inact.(<6)) | 3.875 | 3.723 | 189 µM
23 | Nc1ncc(S(=O)(=O)c2ccc(Cl)cc2)c(N)n1 [CMP141] | Inact. (Inact.(<6)) | 5.374 | 5.222 | 6 µM
24 | CC1=C(C(=O)OCCc2ccccc2)C(c2ccccc2[N+](=O)[O-])C2=C(CCCC2=O)N1 (stereo not drawn) [CMP102] | Inact. (Inact.(<6)) | 5.754 | 5.602 | 2.5 µM

Row | Structure (SMILES) | Inact.(<6)/Act.(>=6) (SARS-CoV 3CLpro [1]) | SI*pIC50 (SARS-CoV-2 3CLpro) | pIC50 (SARS-CoV 3CLpro [2]) | IC50 (SARS-CoV 3CLpro [2])
25 | COc1cc(O)c2c(=O)cc(-c3ccc(OC)c(-c4c(O)cc(O)c5c(=O)cc(-c6ccc(O)cc6)oc45)c3)oc2c1 [CMP150] | Inact. (Inact.(<6)) | 4.6468 | 4.495 | 32 µM
26 | O=c1[nH]c2cc(Cl)cc(Cl)c2c(O)c1Sc1nnnn1-c1ccc(O)cc1 [CMP110] | Inact. (Inact.(<6)) | 5.127 | 4.975 | 10.6 µM
27 | CC(C)(C)NC(=O)C(c1cccnc1)N(C(=O)c1cccs1)c1ccc(C(C)(C)C)cc1 (stereo not drawn) [CMP189] | Inact. (Inact.(<6)) | 4.453 |  | 
28 | O=C(Oc1cncc(Cl)c1)c1cscn1 [CMP166] | Act. (Act.(>=6)) | 6.72 | 6.569 | 0.27 µM
29 | O=C(Oc1cncc(Cl)c1)c1cc2ccccc2s1 [CMP140] | Act. (Act.(>=6)) | 7.152 | 7 | 0.1 µM
30 | CC(C)C[C@H](NC(=O)[C@@H](NC(=O)[C@H](C)NC(=O)OCc1ccccc1)C(C)C)C(=O)NC(Cc1ccccc1)C(=O)C(F)(F)F (stereo partly drawn) [CMP174] (Cbz-AVL[ξF]-CF3) | Inact. (Inact.(<6)) | 5.152 | 5 | 10 µM
31 | Cc1c(O)c(O)cc2c1CC=C1[C@@]2(C)CC[C@@]2(C)[C@@H]3C[C@](C)(C(=O)O)CC[C@]3(C)CC[C@]12C [CMP161] | Inact. (Inact.(<6)) | 4.816 | 4.664 | 21.7 µM
32 | COc1ccc(C(c2c(O)c3cc(C)ccc3oc2=O)c2c(O)c3cc(C)ccc3oc2=O)cc1 [CMP105] | Inact. (Inact.(<6)) | 5.171 | 5.02 | 9.56 µM
33 | Nc1nc(CSc2nnc(-c3cccc4ccccc34)n2-c2ccccc2)cs1 [CMP135] | Inact. (Inact.(<6)) | 4.386 | 4.234 | 58.3 µM
34 | O=C1Nc2ccc(S(=O)(=O)N3CCOCC3)cc2C1=O [CMP159] | Inact. (Inact.(<6)) | 5.05 | 4.898 | 12.7 µM
35 | O=c1cc(-c2ccc(O)c(-c3c(O)cc(O)c4c(=O)cc(-c5ccc(O)cc5)oc34)c2)oc2cc(O)cc(O)c12 [CMP154] | Inact. (Inact.(<6)) | 5.233 | 5.081 | 8.3 µM
36 | CC(=O)n1nc(SSc2ccccc2[N+](=O)[O-])nc1C [CMP120] | Inact. (Inact.(<6)) | 5.656 | 5.504 | 3.13 µM
37 | Clc1ccc(C2C(n3ccnc3)C(c3ccc(Br)cc3)=NN2c2ccc(Cl)c(Cl)c2)cc1 (stereo not drawn) [CMP112] | Inact. (Inact.(<6)) | 5.754 | 5.602 | 2.5 µM
38 | O=C(Oc1cncc(Cl)c1)c1cc2ccccc2[nH]1 [CMP170] | Act. (Act.(>=6)) | 7.307 | 7.1549 | 0.07 µM
39 | O=C(O)c1ccc(S(=O)(=O)c2cc(Br)c(O)c(Br)c2)cc1 [CMP138] | Inact. (Inact.(<6)) | 4.948 | 4.796 | 16 µM
40 | COc1ccc(-c2cc(=O)c3c(O)cc(O)c(-c4cc(-c5cc(=O)c6c(O)cc(OC)cc6o5)ccc4OC)c3o2)cc1 [CMP155] | Inact. (Inact.(<6)) | 4.568 | 4.416 | 38.4 µM
41 | Cc1csc(SSc2ccccc2[N+](=O)[O-])n1 [CMP267] | Inact. (Inact.(<6)) |  |  | 
42 | COc1ccc2c(c1)CCC1C2=NN(C(C)=O)C1c1cccc(I)c1 (stereo not drawn) [CMP116] | Inact. (Inact.(<6)) |  |  | 
43 | CC(C)(C)NC(=O)C(c1ccnnc1)N(C(=O)c1ccco1)c1ccc(C(C)(C)C)cc1 (stereo not drawn) [CMP203] | Inact. (Inact.(<6)) |  |  | 
44 | O=C1C(=O)N(Cc2ccc3ccccc3c2)c2ccc(S(=O)(=O)N3CCOCC3)cc21 [CMP246] | Inact. (Inact.(<6)) |  |  | 
45 | CC1CC(C)CN(S(=O)(=O)c2ccc3c(c2)C(=O)C(=O)N3Cc2ccccc2)C1 (stereo not drawn) [CMP251] | Inact. (Inact.(<6)) |  |  | 
46 | COC(=O)/C=C/[C@H](C[C@@H]1CCNC1=O)NC(=O)[C@H](CC(C)C)NC(=O)[C@@H](NC(=O)OCc1ccccc1)C(C)C [CMP253] | Inact. (Inact.(<6)) |  |  | 
47 | CC1CCN(S(=O)(=O)c2ccc3c(c2)C(=O)C(=O)N3Cc2ccc3ccccc3c2)CC1 [CMP249] | Inact. (Inact.(<6)) |  |  | 
